Assay results: US20190358174A1, “ACTIVE AGENTS AGAINST PROTOZOA” (Christian-Albrechts-Universität zu Kiel, priority 2016, published 2019)
pIC50: −log10 of the molar value. Like-named read-outs stand apart in the source and are kept apart here.

Experiments:
[1] = biological target: T1, FNT wild-type (Plasmodium falciparum, UniProt O77389); assay: yeast test system, 14C-L-lactate uptake, FNT wild-type expressed in Saccharomyces cerevisiae; format: cell-based
T1 construct: expressed in transfected cells; host or cells: Saccharomyces cerevisiae W303-1A jen1Δ ady2Δ, plasmid pDR196 (PMA promoter)
T1 sequence (O77389 whole entry): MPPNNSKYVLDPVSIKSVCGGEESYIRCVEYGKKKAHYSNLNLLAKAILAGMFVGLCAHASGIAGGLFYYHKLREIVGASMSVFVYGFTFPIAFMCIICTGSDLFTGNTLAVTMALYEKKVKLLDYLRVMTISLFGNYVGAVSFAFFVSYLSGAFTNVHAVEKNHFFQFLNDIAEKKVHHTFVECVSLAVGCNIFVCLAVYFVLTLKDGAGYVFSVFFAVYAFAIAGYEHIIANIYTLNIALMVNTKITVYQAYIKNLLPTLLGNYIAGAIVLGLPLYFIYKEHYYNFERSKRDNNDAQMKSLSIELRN
Text: (§1) The FNT of the wild-type plasmodium (available under accession number PF3D7_0316600 in the data bank PlasmoDB) and of the resistant plasmodia (position of the mutation in the open reading frame: guanine 319 to adenine) were expressed in the yeast Saccharomyces cerevisiae W303-1A jen1Δ ady2Δ from plasmid pDR196 (PMA promoter). In the yeast, the endogenous genes for the monocarboxylate transporter Jenlp (sequence accession No. CAA82062 NCBI) and Ady2p (sequence accession No. KZV 12856) were deleted (obtained from M. Casal, Universidade do Minho, Portugal).
This yeast was grown in SD medium with addition of adenine, histidine, leucine, tryptophan and 2% (wt/v) glucose at 30° C. up to an OD600 of 0.8 to 1.0, harvested by centrifugation and washed once with water and centrifuged down again, and suspended in 50 mM HEPES/TRIS (pH 6.8) and adjusted to an OD600 of 50±10% and stored on ice. For contacting with one of the compounds a compound of one step of a dilution series in DMSO was provided in a reaction vessel and onto this 80 μL of the yeast suspension were pipetted. […] The lactate concentration obtained was 1 mM. After an incubation of 30 s the uptake of lacatate was stopped by a rapid dilution by means of adding of 1 ml ice cold water. From the yeast suspension diluted this way the yeast cells were brought onto a filter membrane by vacuum filtration, washed with 7 ml cold water and transferred with the filter membrane into 3 ml scintillation cocktail. After 24 h of incubation at 18° C. in the scintillation cocktail, in which the cells were lysed, the amount of radioactively labelled lactate was measured by means of a scintillation counter. The total amount of lactate which was taken up by the yeast was calculated from the measured amount of radioactively labelled lactate. As a positive control the yeast was treated equally in parallel testing with DMSO without one of the compounds and was regarded as 100% FNT activity, respectively 0% inhibition. In testings with the compound a lower amount of lactate taken up was found in comparison to the parallel positive control. As a negative control yeast was treated in parallel in which the endogenous genes for the monocarboxylate transporters Jenlp and Ady2p were deleted, but the FNT from plasmodium was not expressed. This negative control was regarded as 0% FNT activity, respectively 100% inhibition.
(§2) As a representative for a Formiate-Nitrit-Transporter protein (FNT) from protozoa, the FNT of Plasmodium falciparum as wild-type and as […] mutant was used, which were each expressed in yeast and incubated with dilutions of the compounds to be tested as described in Example 1.

[2] = biological target: T2, Gly107Ser mutant of FNT (Plasmodium falciparum, UniProt O77389, G107S); assay: yeast test system, 14C-L-lactate uptake, FNT Gly107Ser mutant expressed in Saccharomyces cerevisiae; format: cell-based
T2 construct: expressed in transfected cells; host or cells: Saccharomyces cerevisiae W303-1A jen1Δ ady2Δ, plasmid pDR196 (PMA promoter)
T2 sequence (O77389 whole entry G107S): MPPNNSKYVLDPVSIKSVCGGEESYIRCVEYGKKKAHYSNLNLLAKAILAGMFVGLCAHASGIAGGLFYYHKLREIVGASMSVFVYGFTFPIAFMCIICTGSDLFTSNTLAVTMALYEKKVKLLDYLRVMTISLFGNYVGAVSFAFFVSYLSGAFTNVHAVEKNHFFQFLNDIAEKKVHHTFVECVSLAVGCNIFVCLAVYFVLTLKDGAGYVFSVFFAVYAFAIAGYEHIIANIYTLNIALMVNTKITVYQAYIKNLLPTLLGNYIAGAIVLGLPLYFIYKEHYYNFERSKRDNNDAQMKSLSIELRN
Text: as §1
This yeast was grown in SD medium with addition of adenine, histidine, leucine, tryptophan and 2% (wt/v) glucose at 30° C. up to an OD600 of 0.8 to 1.0, harvested by centrifugation and washed once with water and centrifuged down again, and suspended in 50 mM HEPES/TRIS (pH 6.8) and adjusted to an OD600 of 50±10% and stored on ice. For contacting with one of the compounds a compound of one step of a dilution series in DMSO was provided in a reaction vessel and onto this 80 μL of the yeast suspension were pipetted. After an incubation on ice for 15 to 20 min 20 μL 5 mM Na-L-lacate plus 0.04 μCi radioactively labelled L-(1-^14C) lactate was added. The lactate concentration obtained was 1 mM. After an incubation of 30 s the uptake of lacatate was stopped by a rapid dilution by means of adding of 1 ml ice cold water. From the yeast suspension diluted this way the yeast cells were brought onto a filter membrane by vacuum filtration, washed with 7 ml cold water and transferred with the filter membrane into 3 ml scintillation cocktail. After 24 h of incubation at 18° C. in the scintillation cocktail, in which the cells were lysed, the amount of radioactively labelled lactate was measured by means of a scintillation counter. The total amount of lactate which was taken up by the yeast was calculated from the measured amount of radioactively labelled lactate. As a positive control the yeast was treated equally in parallel testing with DMSO without one of the compounds and was regarded as 100% FNT activity, respectively 0% inhibition. In testings with the compound a lower amount of lactate taken up was found in comparison to the parallel positive control. As a negative control yeast was treated in parallel in which the endogenous genes for the monocarboxylate transporters Jenlp and Ady2p were deleted, but the FNT from plasmodium was not expressed. This negative control was regarded as 0% FNT activity, respectively 100% inhibition.
as §2

[3] = system: Plasmodium falciparum; assay: growth of Plasmodium falciparum culture (parasitaemia by FACS); format: cell-based
Protocol: The effect of the following compounds on the growth of Plasmodium falciparum was tested using cultivated plasmodia:
The plasmodium culture was maintained in 5% 0+ erythrocytes in RPMI 1640 medium with 0.5% Albumax at 37° C. […] A change of medium was made after 24 h and the compounds were added freshly.

[4] = system: resistant plasmodia (FNT mutation Gly107Ser); assay: microbe, parasite or virus in culture; format: cell-based, Plasmodium falciparum; details: for pIC50: Plasmodium falciparum, read-out: plasmodium culture IC50 against Gly107Ser mutant
[5] = yeast test system, 15 to 20 min preincubation, 1 mM lactate, pH 6.8, read-out: IC50 against FNT wild-type
[6] = Plasmodium falciparum; read-out: plasmodium culture IC50 against wild-type
[7] = Plasmodium falciparum; 48 h after addition, parasitaemia by FACS; read-out: inhibitory effect IC50 on the growth of the plasmodium culture

Question: `CC(=O)C=C(O)C(F)(F)C(F)(F)F` [BH-204] was tested. Which pIC50 [1, 5] did it give?
Answer: 5.72

Question: And the pIC50 ([2]; yeast test system, 15 to 20 min preincubation, 1 mM lactate, pH 6.8, read-out: IC50 against Gly107Ser mutant of FNT)?
Answer: 5.09

Question: How did the pIC50 [3, 6] turn out when `CC(C)(O)CC(=O)/C=C(\O)C(F)(F)C(F)(F)F` [BH-262] was run?
Answer: 5.00

Question: What about the pIC50 [4] of the same compound?
Answer: 4.15

Question: How did the pIC50 [2] turn out when `Cn1ccc(C(=O)/C=C(\O)C(F)(F)C(F)(F)F)c1` [BH-269] was run?
Answer: 4.82

Question: Which results are given for `O=C(/C=C(\O)C(F)(F)C(F)(F)F)/C=C/c1ccccc1` [BH-292]?
Answer: pIC50 [1, 5]: 6.59; pIC50 [2]: 4.60

Question: With `COc1ccc(C(=O)/C=C(\O)C(F)(F)C(F)(F)F)cc1` [BH-296] as the compound, how does the pIC50 [3, 6] read?
Answer: 5.47

Question: What about the pIC50 [4] of the same compound?
Answer: 5.05

Question: What about the “effect against the resistant parasites (in words)” value ([4]; pharmaceutically acceptable concentration range) of the same compound?
Answer: effective against the resistant parasites

Question: What about the pIC50 [1, 5] of the same compound?
Answer: 6.85

Question: What about the “inhibition of the Gly107Ser mutant (in words)” value [2] of the same compound?
Answer: inhibit the Gly107Ser mutant significantly

Question: What does the source list for `O=C(/C=C(\O)C(F)(F)C(F)(F)F)c1ccc(Cl)cc1` [BH-301]?
Answer: pIC50 [1]: 6.92; pIC50 [2]: 5.24; inhibition of the Gly107Ser mutant (in words) [2]: inhibit the Gly107Ser mutant significantly

Question: How did the pIC50 [1, 5] turn out when `O=C(/C=C(\O)C(F)(F)C(F)(F)F)c1cc2ccccc2o1` [BH-306] was run?
Answer: 6.74

Question: What about the pIC50 [2] of the same compound?
Answer: 4.82

Question: With `O=C(/C=C(\O)C(F)(F)C(F)(F)F)c1ccc(Cl)cc1O` [BH-317] as the compound, how does the “inhibition of the plasmodium culture (in words)” value [3] read?
Answer: effective inhibition

Question: What about the pIC50 [3, 6] of the same compound?
Answer: 6.43

Question: And the “inhibition of the FNT in the yeast test system (in words)” value [1]?
Answer: effective inhibition

Question: And the pIC50 [1, 5]?
Answer: 6.92

Question: How did the pIC50 [1] turn out when `COc1ccc(CCC(=O)/C=C(\O)C(F)(F)C(F)(F)F)cc1` [BH-324.2] was run?
Answer: 6.80

Question: And the pIC50 [2]?
Answer: 5.20

Question: What about the “inhibition of the Gly107Ser mutant (in words)” value [2] of the same compound?
Answer: inhibit the Gly107Ser mutant significantly

Question: What does the source list for `CCOc1ccc(C(=O)/C=C(\O)C(F)(F)C(F)(F)F)c(O)c1` [BH-326]?
Answer: inhibition of the plasmodium culture (in words) [3]: effective inhibition; pIC50 [3, 6]: 7.30; inhibition of the FNT in the yeast test system (in words) [1]: effective inhibition; pIC50 [1, 5]: 6.62

Question: Which “inhibition of the plasmodium culture (in words)” value [3] does the source give for `CC(C)Oc1ccc(C(=O)/C=C(\O)C(F)(F)C(F)(F)F)c(O)c1` [BH-340] here?
Answer: effective inhibition

Question: And the pIC50 [3, 6]?
Answer: 7.00

Question: And the “inhibition of the FNT in the yeast test system (in words)” value [1]?
Answer: effective inhibition

Question: And the pIC50 [1, 5]?
Answer: 6.40

Question: How did the pIC50 ([3]; Plasmodium falciparum, read-out: plasmodium culture IC50 against wild-type) turn out when `COc1ccc(C(=O)/C=C(\O)C(F)(F)C(F)(F)C(F)(F)F)c(O)c1` [BH-362] was run?
Answer: 6.24

Question: And the pIC50 [1, 5]?
Answer: 6.60

Question: How did the pIC50 [1, 5] turn out when `O=C(/C=C(\O)C(F)(F)C(F)(F)F)c1ccc(OCc2ccccc2)cc1O` [BH-388] was run?
Answer: 6.05

Question: How did the pIC50 [3, 7] turn out when `O=C1CC(O)(C(F)(F)C(F)(F)F)Oc2ccccc21` (stereo not shown) [MMV000972, reference compound] was run?
Answer: 5.77

Question: With `COc1ccc2c(c1)OC(O)(C(F)(F)C(F)(F)F)CC2=O` (stereo not shown) [MMV007839, reference compound] as the compound, how does the pIC50 [3, 7] read?
Answer: 6.85

Question: What about the pIC50 ([1]; preincubation 20 min, read-out: IC50 of lactate transport) of the same compound?
Answer: 6.77

Question: And the pIC50 ([1]; preincubation 24 h prior to addition of lactate, read-out: IC50 of lactate transport)?
Answer: 7.82

Question: And the “reversibility of FNT inhibition by washing of the cells” value ([1]; washing with 50 mM HEPES-Tris, pH 6.8)?
Answer: could not be reduced by washing
